According to PubChem BioAssay AID2305 (GlaxoSmithKline (GSK), 2010):
pIC50: −log10 of the molar value.

System: P. falciparum 3D7 growth, pLDH absorbance
Test: blood-stage malaria parasite growth potency – strain 3D7, dose response (AID 2305)

Compound | pIC50
COc1cc(Cc2cnc(N)nc2N)cc(OCCCCCCN2C(=O)c3ccccc3C2=O)c1OC | 5.96
CN(CC(=O)Nc1cc(C(F)(F)F)ccc1-n1cncn1)Cc1ccc2ccccc2c1 | 6.64
COc1ccc2nccc(NC(=O)OC3CCC(NCc4ccc5c(n4)NC(=O)CS5)CC3)c2c1 (centres undefined) | 6.04
c1ccc(COc2ccc(Nc3ncnc4cnc(-c5ccc(CN6CCCCC6)o5)cc34)cc2)cc1 | 6.01
O=C(NCCNc1ccnc(Nc2ccc(F)cc2)n1)c1cc2ccccc2s1 | 6.12
CCC(CC)(Cc1ccccc1)NC(=O)[C@H](CC1CCCCC1)Nc1ccc(C#N)c2ccccc12 | 6.20
O=S(=O)(NCCN1CCCC1)c1ccc(-c2ccc(CNCc3ccccc3)cc2)cc1F | 5.89
Cc1nc(N)nc(N)c1CCCOc1ccccc1Br | 6.38
OCC1CCN(Cc2cccc(-c3ccc(-c4nc5ccc(C(F)(F)F)cc5[nH]4)s3)c2)CC1 | 6.23
COc1ccc(CNCc2ccccc2)cc1-c1ccc(S(=O)(=O)NCCN2CCCC2)c(C)c1 | 6.07
N#Cc1c(N2CCCCCC2)nc(N)c2c(N)nc3c(c12)CC(=O)N3c1ccc(F)cc1 | 6.68
COc1ccc(-c2ccc(NC(=O)c3cccc(C#N)c3)cc2)cc1CN1CCCN(C)CC1 | 6.54
COc1ccccc1CCNc1ncnc2c1[nH]c1ccc(F)cc12 | 6.08
c1ccc2c(Nc3ccc(OCCOCCOc4ccc(Nc5c6ccccc6nc6ccccc56)cc4)cc3)c3ccccc3nc2c1 | 6.55
CCN(CC)CCNC(=O)c1ccc(NC(=O)c2oc3c(Cl)cccc3c2C)cc1 | 6.15
O=C(Nc1ccc(Cn2ncc(N3CCCNCC3)c(Cl)c2=O)cc1)Nc1cccc(C(F)(F)F)c1 | 6.19
O=C(Nc1ccc(-c2ccccc2)cc1)Nc1cccc(Cn2nc(Cl)c(N3CCCNCC3)cc2=O)c1 | 6.17
Cc1ccc(C(=O)NC2CC2)cc1-c1ccc2c(cnn2S(=O)(=O)c2ccc(F)cc2)c1 | 6.54
N#Cc1cccc(COC(=O)C2=C(COc3ccccc3Cl)NC(=O)NC2c2c[nH]c3cnccc23)c1 (centres undefined) | 6.10
O=C(O)C[C@H](NC(=O)[C@@H]1CCCN1C(=O)c1cccc(-c2ccc(Cl)c(Cl)c2)c1)C(=O)O | 6.07
COc1ccc(NC(=O)/C=C/c2cc(F)cc(C(F)(F)F)c2)cc1OCCN(C(C)C)C(C)C | 6.17
CC(Oc1ccc(Cl)cc1)C(=O)Nc1cc(C(F)(F)F)ccc1N1CCOCC1 (centres undefined) | 6.28
Fc1ccc2nc(-c3ccc(-c4ccc(CNCCN5CCNCC5)cc4)cc3)[nH]c2c1 | 6.07
Cc1ccc(Cn2c(N3CCC(C(=O)NCc4cccs4)CC3)nc3ccccc32)cc1 | 6.12
COc1cccc2cc(C(=O)N[C@@H](CC(C)C)C(=O)Nc3cc(F)ccc3Br)oc12 | 6.01

Compound | pIC50
S=C(Nc1cccc(Cl)c1)NC1CCN(c2ccnc3cc(Cl)ccc23)C1 (centres undefined) | 6.82
Cc1ccc(O)c(Nc2c3c(c(C#N)c4nc5ccccc5n24)CCC3)c1 | 5.90
Cc1ccccc1C1CCN(C2CCC(NC(=O)/C=C/c3ccccc3C(F)(F)F)CC2)CC1 (centres undefined) | 5.85
Cc1cc(CNCCCCCNCc2cccc([N+](=O)[O-])c2)ccc1O | 6.11
Nc1nc(N)c2c(CCc3ccc4ccccc4c3)cccc2n1 | 6.16
CC(C)c1ccc(NC(=O)N2CCc3ccc(OCCN(C(C)C)C(C)C)cc32)c(Br)c1 | 5.96
COc1cc(Nc2ncc3c(C)nc(-c4cccc(Nc5ccc(CN6CCS(=O)(=O)CC6)cc5)c4)n3n2)cc(OC)c1OC | 6.06
Cc1cnc(Nc2ccccc2)nc1NCCC(=O)Nc1ccccc1 | 5.94
COc1ccc(Cc2cccc(C(C(=O)NCc3cc(Cl)cc(Cl)c3)N3CCN(C)CC3)c2)cc1 (centres undefined) | 6.16
CCOC(=O)c1ccc(NC(=O)c2ccccc2C(=O)O)cc1 | 6.04
CCOc1ccc2c(NN=Cc3cccc([N+](=O)[O-])c3)cc(C)nc2c1 | 6.66
Cc1cccc2[nH]c(-c3ccc(-c4ccc(CNCc5cccc(N)c5)cc4)s3)nc12 | 6.12
Cc1cccc(N2CCN(C3CCC(NC(=O)c4cc5ccccc5[nH]4)CC3)CC2)c1C (centres undefined) | 6.21
COc1ccc(NC(=O)Nc2nc(-c3ccc(Cl)c(C)c3)cs2)cc1N1CCN(C)CC1 | 6.57
COc1cccc(C(=O)[C@H]2C[C@@H]2CN(C)CC(O)c2cc(C)c(OC)cc2C)c1 (some centres undefined) | 5.94
N#CCCN1CCN(Cc2cccc(-c3ccc(-c4nc5ccc(C(F)(F)F)cc5[nH]4)cc3)c2)CC1 | 6.13
COc1ccccc1C1CCN(Cc2csc(NC(=O)c3ccc(-c4ccc(C(F)(F)F)cc4)cc3)n2)CC1 | 6.02
CCC(C)CN1C(=O)C(c2ccccc2)(c2ccccc2)N=C1N (centres undefined) | 6.15
Oc1ccc(Nc2nc(NCc3ccccc3)c3ccccc3n2)cc1 | 6.72
COc1ccc(CN2CCC(C(=O)Nc3cccc(-c4cccc(Cl)c4)c3)CC2)cc1O | 6.01
Cc1ccc(NC(=O)Nc2ccc(Cl)c(C(F)(F)F)c2)cc1-c1ccc(C(=O)NCCN2CCOCC2)cc1 | 6.09
COCC(=O)Nc1nc2ccccc2[nH]1 | 6.52
CS(=O)(=O)CCNCc1ccc(-c2ccc3c(Nc4ccc(F)cc4Cl)ccnc3c2)o1 | 6.13
CCC1CCCCN1S(=O)(=O)c1ccc(NC(=O)c2cc(C)on2)cc1 (centres undefined) | 5.91
CC(C)(C)OC(=O)Nc1cccc(-c2csc(N=C(N)N)n2)c1 | 6.08

Compound | pIC50
COc1ccc2c(NN=Cc3ccc(OC)c4ccccc34)cc(C)nc2c1 | 6.22
O=C(Cc1ccc(NC(=O)c2ccc(O)c(-c3ccc(Cl)c(Cl)c3)c2)cc1)NCCN1CCCCC1 | 6.08
COc1nc2c(CCN3CC[C@H](NCc4ccc5c(c4)NC(=O)CO5)[C@H](O)C3)c(Cl)cnc2cc1F | 5.99
CN(c1ccc2c(c1)nc(NC(=O)C1(c3cc(F)ccc3F)CC1)n2C)c1ccnc(Nc2cccc(CS(C)(=O)=O)c2)n1 | 5.96
C=CCN1CCC(N(Cc2cccc(Oc3ccccc3)c2)C(=O)C(c2ccccc2)c2ccccc2)CC1 | 5.94
Nc1cccc(CNCc2ccc(-c3ccc(-c4nc5ccccc5[nH]4)s3)cc2)c1 | 6.24
Cc1cccc2[nH]c(-c3ccc(-c4cccc(C(=O)NCCN5CCCC5)c4)s3)nc12 | 5.94
Oc1ccc(CCNc2nc(NCc3cccc(OCc4cccc(F)c4)c3)nc(N3CCNCC3)n2)cc1 | 5.87
O=C(Nc1ccc([N+](=O)[O-])cc1)Nc1nc2ccc(Cl)cc2s1 | 6.08
CCOC(=O)c1c(C)n(-c2ccccc2)c2ccc(OC(=O)c3ccc(S(=O)(=O)N(CC)CC)cc3)cc12 | 6.12
COc1ccccc1C(=O)Nc1ccc(Nc2nc(C)cc(N3CCOCC3)n2)cc1 | 6.28
FC(F)(F)c1ccc(COc2cc(Cl)ccc2Cn2ccnc2)cc1 | 6.19
COc1ccc(CN2CCCN(Cc3cccc(NC(=O)c4ccc5ccccc5c4)c3)CC2)cc1 | 6.00
CCN(CCCN1CCCCC1)c1cc(C)nc(Nc2cc(C(F)(F)F)ccc2C)n1 | 6.07
NC(N)=NN=CC(=O)Nc1ccc(Br)cc1 | 6.06
CCN(CC)C(=O)C1CCCN(c2cc(C)nc(Nc3ccc(Cl)cc3)n2)C1 (centres undefined) | 6.14
Cc1cccc2[nH]c(-c3cccc(-c4cccc(CNCc5ccc(S(C)(=O)=O)cc5)c4)c3)nc12 | 6.52
COc1ccc(-c2ccc3c(-c4cccc(S(C)(=O)=O)c4)cnc(N)c3c2)cc1 | 5.88
O=C(Nc1cccc(-c2nc3ccccc3[nH]2)c1)c1ccc(-c2cccc([N+](=O)[O-])c2)o1 | 6.82
CN1CCCN(Cc2ccc(-c3ccc(NC(=O)c4cccc(Cl)c4)cc3)cc2)CC1 | 6.07
CN1CCN(CC(=O)Nc2cccc(-c3cccc(-c4nc5ccc(F)cc5[nH]4)c3)c2)CC1 | 6.13
Fc1ccc2nc(-c3ccc(-c4ccc(CN5CCN(c6ccncc6)CC5)cc4)cc3)[nH]c2c1 | 6.60
Cc1ccc(NC(=O)NC2CCN(CCCCCNC(=O)/C=C/c3ccc(Cl)c(Cl)c3)CC2)cc1 | 6.16
Cc1ccoc1C(=O)Nc1ccc(-c2cccc(-c3nc4c(C)cccc4[nH]3)c2)cc1 | 6.14
COc1ccc2ncc(F)c(CCN3CC[C@H](NC(=O)c4ccc5c(n4)NC(=O)CS5)[C@H](O)C3)c2n1 | 6.02

Compound | pIC50
COc1ccccc1Cn1ccnc1SCC(=O)Nc1cccc(C(F)(F)F)c1 | 6.04
COc1cc2nc(NCCc3ccccc3)nc(NCCc3ccccc3)c2cc1OC | 6.55
CCCCCCCCCn1c(NCc2cc(Cl)ccc2O)nc2ccccc21 | 6.08
Cc1[nH]c(C)c(-c2ccc(OCc3cc(F)cc(F)c3)nc2)c(=O)c1Cl | 7.05
COc1ccc2nccc([C@@H](O)CN3CCC(NC(=O)C(c4cc5ccccc5o4)N4CCN(C(c5ccccc5)c5ccccc5)CC4)CC3)c2c1 (some centres undefined) | 6.82
CC(CCCCOCCc1ccccc1)NCC(O)c1cc(Cl)c(N)c(Cl)c1 (centres undefined) | 6.10
CCCCCCN1CCCN(Cc2ccc(C(=O)Nc3ccc(CC)cc3)cc2)CC1 | 6.12
Cc1ccc(C)c(Cn2ccc3nc(Cl)nc(Cl)c32)c1 | 6.04
Cc1noc(C)c1CN1Cc2ccccc2OC2(CCN(Cc3c[nH]c4cnccc34)CC2)C1 | 5.97
Cc1nc(Nc2ccc(F)cc2)nc(N2CCc3cc(O)ccc3C2C)c1C (centres undefined) | 6.12
Cn1nc(-c2ccc(NC(=O)Nc3cc(C(F)(F)F)ccc3F)c(F)c2)c2cnc(NCCCN3CCOCC3)nc21 | 6.22
CCCCCCCN1CC[C@@H](CCC(O)c2ccnc3ccc(OC)cc23)[C@@H](CC)C1 (some centres undefined) | 6.12
O=C(NC1CC1)c1ccc(N2CCC(Cc3ccccc3)CC2)c([N+](=O)[O-])c1 | 6.21
CC[C@H]1CN2CC[C@H]1C[C@H]2[C@H](O)c1cc(-c2ccc(F)cc2)nc2ccc(OC)cc12 | 7.30
NC1=NC2(CCCCC2)N(OCC2CCCCC2)C(N)=N1 | 6.82
c1ccc(C(c2cccs2)N2CCN(Cc3ccc(OCCCN4CCCCC4)cc3)CC2)cc1 (centres undefined) | 5.91
CCOC(=O)c1c(SCc2cccc(F)c2F)[nH]c2ccccc2c1=O | 6.19
COc1ccc(CCNCCCCNCCc2ccc(OC)c3ccccc23)c2ccccc12 | 6.35
Cc1cc(NN=Cc2ccc(Cl)cc2)c2cc(C(F)(F)F)ccc2n1 | 6.04
CCc1ccc2c(c1O)CCN(C)C2Cc1ccccc1Cl (centres undefined) | 6.60
CC(=O)Nc1cccc(C(=O)Nc2cccc(-c3cccc(-c4nc5ccccc5[nH]4)c3)c2)c1 | 6.23
NC(N)=NN=Cc1ccc2ccc3ccccc3c2c1 | 6.42
O=S(=O)(NCCN1CCCC1)c1ccc(-c2ccc(CNC3Cc4ccccc4C3)cc2)cc1 | 6.18
COc1cccc(CCc2ccc(O)c3c2C[C@H]2C[C@H]4[C@H](N(C)C)C(=O)C(C(N)=O)=C(O)[C@@]4(O)C(=O)C2=C3O)c1 | 6.07
